Results taken from ChEMBL document CHEMBL4825691, “Antimicrobial, modulatory, and antibiofilm activity of tt-farnesol on bacterial and fungal strains of importance to human health” (2021).
In brackets after ≈: the same amount, converted by molar mass.

Columns and labels:
Type in all cases: functional
Proteus mirabilis = experiment: Antibacterial activity against Proteus mirabilis ATCC 25933 assessed as inhibition of bacterial growth incubated for 24 hrs by microdilution assay
Klebsiella pneumoniae [1] = experiment: Antibacterial activity against Klebsiella pneumoniae ATCC 700603 assessed as inhibition of bacterial growth incubated for 24 hrs by microdilution assay
Klebsiella pneumoniae [2] = experiment: Antibacterial activity against Klebsiella pneumoniae ATCC 1705 assessed as inhibition of bacterial growth incubated for 24 hrs by microdilution assay
Enterococcus faecalis [3] = experiment: Antibacterial activity against Enterococcus faecalis ATCC 6569 assessed as inhibition of bacterial growth incubated for 24 hrs by microdilution assay
Enterococcus faecalis [4] = experiment: Antibacterial activity against Enterococcus faecalis ATCC 29212 assessed as inhibition of bacterial growth incubated for 24 hrs by microdilution assay
Enterococcus durans = experiment: Antibacterial activity against Enterococcus durans BIO 0114 assessed as inhibition of bacterial growth incubated for 24 hrs by microdilution assay
Streptococcus agalactiae = experiment: Antibacterial activity against Streptococcus agalactiae ATCC 13813 assessed as inhibition of bacterial growth incubated for 24 hrs by microdilution assay
Streptococcus pyogenes = experiment: Antibacterial activity against Streptococcus pyogenes ATCC 19615 assessed as inhibition of bacterial growth incubated for 24 hrs by microdilution assay
Streptococcus mutans = experiment: Antibacterial activity against Streptococcus mutans ATCC 25175 assessed as inhibition of bacterial growth incubated for 24 hrs by microdilution assay
Streptococcus sobrinus = experiment: Antibacterial activity against Streptococcus sobrinus ATCC 27351 assessed as inhibition of bacterial growth incubated for 24 hrs by microdilution assay
Serratia marcescens = experiment: Antibacterial activity against Serratia marcescens ATCC 13880 assessed as inhibition of bacterial growth incubated for 24 hrs by microdilution assay; settings: subsp. marcescens ATCC 13880
Salmonella typhimurium = experiment: Antibacterial activity against Salmonella enterica subsp. enterica serovar Typhimurium ATCC 14028 assessed as inhibition of bacterial growth incubated for 24 hrs by microdilution assay
Shigella flexneri = experiment: Antibacterial activity against Shigella flexneri CCCD S006 assessed as inhibition of bacterial growth incubated for 24 hrs by microdilution assay
Escherichia coli [5] = experiment: Antibacterial activity against Escherichia coli ATCC 25922 assessed as inhibition of bacterial growth incubated for 24 hrs by microdilution assay
Acinetobacter baumannii = experiment: Antibacterial activity against Acinetobacter baumannii ATCC 19606 assessed as inhibition of bacterial growth incubated for 24 hrs by microdilution assay; settings: ATCC 19606 = CIP 70.34 = JCM 6841
[6] = system: Stenotrophomonas maltophilia; experiment: Antibacterial activity against Stenotrophomonas maltophilia EM 0104assessed as inhibition of bacterial growth incubated for 24 hrs by microdilution assay
Staphylococcus aureus = experiment: Antibacterial activity against Staphylococcus aureus ATCC 29213 assessed as inhibition of bacterial growth incubated for 24 hrs by microdilution assay
[7] = system: Staphylococcus epidermidis; experiment: Antibacterial activity against Staphylococcus epidermidis ATCC 12228 assessed as inhibition of bacterial growth incubated for 24 hrs by microdilution assay
Escherichia coli [8] = experiment: Antibacterial activity against Escherichia coli STEC 2C1 assessed as inhibition of bacterial growth incubated for 24 hrs by microdilution assay
Escherichia coli [9] = experiment: Antibacterial activity against Escherichia coli EOL 931 assessed as inhibition of bacterial growth incubated for 24 hrs by microdilution assay
Escherichia coli [10] = experiment: Antibacterial activity against Escherichia coli ETEC 2589093 assessed as inhibition of bacterial growth incubated for 24 hrs by microdilution assay
Escherichia coli [11] = experiment: Antibacterial activity against Escherichia coli EHEC 933 assessed as inhibition of bacterial growth incubated for 24 hrs by microdilution assay
Escherichia coli [12] = experiment: Antibacterial activity against Escherichia coli EAEC I 4913 assessed as inhibition of bacterial growth incubated for 24 hrs by microdilution assay
Escherichia coli [13] = experiment: Antibacterial activity against Escherichia coli EIEC E20851 assessed as inhibition of bacterial growth incubated for 24 hrs by microdilution assay
Escherichia coli [14] = experiment: Antibacterial activity against Escherichia coli EPEC E234969 assessed as inhibition of bacterial growth incubated for 24 hrs by microdilution assay

**Q.** For `O=C(O)c1cn(C2CC2)c2cc(N3CCNCC3)c(F)cc2c1=O` [CIPROFLOXACIN], which MIC (Proteus mirabilis) is on record?
**A.** 0.25 µg/mL (≈ 0.754 µM)

**Q.** COLISTIN was tested. Which MIC (Klebsiella pneumoniae [1]) did it give?
**A.** 1 µg/mL

**Q.** What about the MIC (Klebsiella pneumoniae [2]) of the same compound?
**A.** 1 µg/mL

**Q.** `CC1(C)S[C@@H]2[C@H](NC(=O)[C@H](N)c3ccccc3)C(=O)N2[C@H]1C(=O)O` [AMPICILLIN] was tested. Which MIC (Enterococcus faecalis [3]) did it give?
**A.** 4 µg/mL (≈ 11.4 µM)

**Q.** And the MIC (Enterococcus faecalis [4])?
**A.** 4 µg/mL (≈ 11.4 µM)

**Q.** And the MIC (Enterococcus durans)?
**A.** 4 µg/mL (≈ 11.4 µM)

**Q.** What about the MIC (Streptococcus agalactiae) of the same compound?
**A.** 0.25 µg/mL (≈ 0.715 µM)

**Q.** And the MIC (Streptococcus pyogenes)?
**A.** 0.0625 µg/mL (≈ 0.179 µM)

**Q.** And the MIC (Streptococcus mutans)?
**A.** 0.5 µg/mL (≈ 1.43 µM)

**Q.** What about the MIC (Streptococcus sobrinus) of the same compound?
**A.** 0.125 µg/mL (≈ 0.358 µM)

**Q.** And the MIC (Serratia marcescens)?
**A.** 4 µg/mL (≈ 11.4 µM)

**Q.** What about the MIC (Salmonella typhimurium) of the same compound?
**A.** 4 µg/mL (≈ 11.4 µM)

**Q.** What about the MIC (Shigella flexneri) of the same compound?
**A.** 4 µg/mL (≈ 11.4 µM)

**Q.** What about the MIC (Escherichia coli [5]) of the same compound?
**A.** 4 µg/mL (≈ 11.4 µM)

**Q.** How did the MIC (Acinetobacter baumannii) turn out when `CN(C)c1ccc(O)c2c1C[C@H]1C[C@H]3[C@H](N(C)C)C(O)=C(C(N)=O)C(=O)[C@@]3(O)C(O)=C1C2=O` [MINOCYCLINE] was run?
**A.** 2 µg/mL (≈ 4.37 µM)

**Q.** And the MIC [6]?
**A.** 2 µg/mL (≈ 4.37 µM)

**Q.** Which MIC (Staphylococcus aureus) does the source give for `Cc1onc(-c2ccccc2)c1C(=O)N[C@@H]1C(=O)N2[C@@H]1SC(C)(C)[C@@H]2C(=O)O` [OXACILLIN] here?
**A.** 0.25 µg/mL (≈ 0.623 µM)

**Q.** And the MIC [7]?
**A.** 0.25 µg/mL (≈ 0.623 µM)

**Q.** For `C[C@@H](O)[C@H]1C(=O)N2C(C(=O)O)=C(S[C@@H]3CN[C@H](C(=O)N(C)C)C3)[C@H](C)[C@H]12` [MEROPENEM], which MIC (Escherichia coli [8]) is on record?
**A.** 0.625 µg/mL (≈ 1.63 µM)

**Q.** What about the MIC (Escherichia coli [9]) of the same compound?
**A.** 0.625 µg/mL (≈ 1.63 µM)

**Q.** And the MIC (Escherichia coli [10])?
**A.** 0.625 µg/mL (≈ 1.63 µM)

**Q.** What about the MIC (Escherichia coli [11]) of the same compound?
**A.** 0.625 µg/mL (≈ 1.63 µM)

**Q.** What about the MIC (Escherichia coli [12]) of the same compound?
**A.** 0.625 µg/mL (≈ 1.63 µM)

**Q.** What about the MIC (Escherichia coli [13]) of the same compound?
**A.** 0.625 µg/mL (≈ 1.63 µM)

**Q.** What about the MIC (Escherichia coli [14]) of the same compound?
**A.** 0.625 µg/mL (≈ 1.63 µM)
